{
  "source": "patent US9382230B2",
  "about": "“Methods and compositions for modulating Ire1, SRC and ABL activity” (The Regents of the University of California, priority 2008, dated 2016)",
  "key": {"[1]": {"test_system": "Xbp-1 mRNA splicing (UPR activation through Ire1) in HEK293 cells", "experiment": "XBP-1 mRNA splicing by RT-PCR in HEK293 cells (UPR)", "type": "cell-based, mammalian", "details": "for % splicing mRNA XBP-I Average: Hek293 cells treated for 4 hrs, RT-PCR; for in vivo activation of Ire1: summary statement", "experimental": "The effect of tunicamycin, SU11248, DJM2005, APY24, and APY29 on Ire1 activity was tested in mammalian cells using HEK293 cells as a model system. Cells were treated according to the methods described in Lin J H et al., Science 318:944 (2007). After treatment with the corresponding agents for the indicated time, Xbp-1 mRNA splicing was determined by RT-PCR. Unspliced (u) and spliced (s) Xbp1-mRNA products are indicated and serve as a measure of UPR activation through Ire1.\nExemplary compounds were assayed for their effect on UPR. Results are set forth in FIGS. 18-19 and in the table below."}, "yIre1": {"target": "T1, yIre1 (Saccharomyces cerevisiae, UniProt P32361)", "T1 construct": "GST (N); made in house; host or cells: E. coli BL21 CodonPlus (RIPL)", "T1 sequence (P32361 with tags, fused parts or gaps limits assumed)": "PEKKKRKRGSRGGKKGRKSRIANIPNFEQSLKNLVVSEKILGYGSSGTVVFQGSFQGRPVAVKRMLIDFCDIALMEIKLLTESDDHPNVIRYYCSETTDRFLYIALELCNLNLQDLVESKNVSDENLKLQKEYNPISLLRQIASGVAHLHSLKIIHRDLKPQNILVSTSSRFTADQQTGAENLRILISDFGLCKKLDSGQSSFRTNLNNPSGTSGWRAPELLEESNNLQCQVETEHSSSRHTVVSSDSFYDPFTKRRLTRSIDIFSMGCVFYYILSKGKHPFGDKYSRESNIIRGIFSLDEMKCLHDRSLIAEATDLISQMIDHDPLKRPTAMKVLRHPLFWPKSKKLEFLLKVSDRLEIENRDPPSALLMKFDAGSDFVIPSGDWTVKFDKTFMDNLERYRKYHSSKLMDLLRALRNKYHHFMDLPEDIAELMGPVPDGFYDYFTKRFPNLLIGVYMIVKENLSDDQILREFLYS", "experiment": "RNA cleavage-based yIre1 activation assay", "type": "biochemical, yeast", "parameters": "unit not given here", "details": "3 μM yIre1, stem loop RNA, 15 μM effector", "experimental": "The RNase Cleavage Assay.\nRNA cleavage reactions were conducted at 30° C. in buffer containing 20 mM HEPES (pH 7.5), 70 mM NaCl, 2 mM ADP (pH 7.0), 2 mM Mg(OAc)2, 5 mM DTT, 5% glycerol, less than 1 nM ^32p-labeled RNA substrate, and 3 nM-20 μM Ire1. Reaction solutions and buffers were designed using Biochem Lab Solutions 3.5. Reactions were prepared such that 1 μl of RNA was added to 9 μl of pre-warmed reaction mixture containing all components except RNA. Typically, 3-10 minute time courses were collected starting from 5 seconds for the first time point. At time intervals, 1 μl of solution was withdrawn from each reaction and mixed wish 6 μl stop solution containing 10 M urea, 0.1% SDS, 0.1 mM EDTA, 0.05% xylene cyanol, and 0.05% bromophenol blue. The samples were separated by a denaturing 10% PAGE and exposed on a phosphor storage screen. The screens were scanned on a Storm or a Typhoon instrument and quantified using ImageQuant 5.0 or GelQuant.NET 1.4 programs. The data were plotted and fit in SigmaPlot 6.0.\nRNA cleavage can be used to assess yIre1 activation as shown by FIG. 20 and the table below (3 μM yIre1, stem loop RNA, 15 μM effector): […]"}, "[2]": {"test_system": "XBP1-GFP reporter in Hek293-FT cells", "experiment": "FACS on Hek293-FT cells transfected with XBP1-GFP reporter", "type": "cell-based", "details": "treated for 24 hrs", "experimental": "Exemplary compounds were assayed and the results are set froth in the table below."}, "Ire1": {"test_system": "Ire1", "experiment": "Summary statement of Ire1 activation or inhibition (assay not specified)"}},
  "data": [
    {"compound": "N#CCc1ccc(Nc2nccc(Nc3cc(C4CCCCC4)n[nH]3)n2)cc1", "note": "[APY34]", "values": [
      {"measurement": "% splicing mRNA XBP-I Average", "setting": "[1]; Tm 0.3 ug/ml + compound 2 μM", "value": 7, "unit": "%"},
      {"measurement": "% splicing mRNA XBP-I Average", "setting": "[1]; compound 2 μM", "value": 12, "unit": "%"},
      {"measurement": "% splicing mRNA XBP-I Average", "setting": "[1]; compound 10 μM", "value": 34, "unit": "%"},
      {"measurement": "RNA cleavage (yIre1 activation)", "setting": "yIre1", "value": 0.0014},
      {"measurement": "% fold induction to Control", "setting": "[2]; Tm 0.3 ug/ml + compound 2 uM", "value": 78, "unit": "%"},
      {"measurement": "Mean fluorescence", "setting": "[2]; Tm 0.3 ug/ml + compound 2 uM", "value": 4318},
      {"measurement": "% fold induction to Control", "setting": "[2]; compound 2 uM", "value": 17, "unit": "%"},
      {"measurement": "Mean fluorescence", "setting": "[2]; compound 2 uM", "value": 2836}
    ]},
    {"compound": "CC(=O)Nc1ccc(Nc2nccc(Nc3cc(C4CCCCC4)n[nH]3)n2)cc1", "note": "[APY36]", "values": [
      {"measurement": "% splicing mRNA XBP-I Average", "setting": "[1]; Tm 0.3 ug/ml + compound 2 μM", "value": 16, "unit": "%"},
      {"measurement": "% splicing mRNA XBP-I Average", "setting": "[1]; compound 2 μM", "value": 10, "unit": "%"},
      {"measurement": "% splicing mRNA XBP-I Average", "setting": "[1]; compound 10 μM", "value": 19, "unit": "%"},
      {"measurement": "RNA cleavage (yIre1 activation)", "setting": "yIre1", "value": 0.000897}
    ]},
    {"compound": "N#CCc1ccc(Nc2nc(Nc3cc(C4CC4)n[nH]3)c3ccccc3n2)cc1", "note": "[APY65]", "values": [
      {"measurement": "activation of Ire1", "setting": "Ire1", "value": "significant activation"},
      {"measurement": "% splicing mRNA XBP-I Average", "setting": "[1]; Tm 0.3 ug/ml + compound 2 μM", "value": 29, "unit": "%"},
      {"measurement": "% splicing mRNA XBP-I Average", "setting": "[1]; compound 2 μM", "value": 22, "unit": "%"},
      {"measurement": "% splicing mRNA XBP-I Average", "setting": "[1]; compound 10 μM", "value": 51, "unit": "%"},
      {"measurement": "in vivo activation of Ire1", "setting": "[1]", "value": "significant in vivo activation"},
      {"measurement": "RNA cleavage (yIre1 activation)", "setting": "yIre1", "value": 0.005304}
    ]},
    {"compound": "CC(=O)Nc1ccc(Nc2nccc(Nc3cc(C4CCCC4)n[nH]3)n2)cc1", "note": "[APY75]", "values": [
      {"measurement": "% splicing mRNA XBP-I Average", "setting": "[1]; Tm 0.3 ug/ml + compound 2 μM", "value": 44, "unit": "%"},
      {"measurement": "% splicing mRNA XBP-I Average", "setting": "[1]; compound 2 μM", "value": 9, "unit": "%"},
      {"measurement": "% splicing mRNA XBP-I Average", "setting": "[1]; compound 10 μM", "value": 17, "unit": "%"},
      {"measurement": "RNA cleavage (yIre1 activation)", "setting": "yIre1", "value": 0.00175}
    ]},
    {"compound": "OCCc1ccc(Nc2nccc(Nc3cc(C4CCCC4)n[nH]3)n2)cc1", "note": "[APY76]", "values": [
      {"measurement": "activation of Ire1", "setting": "Ire1", "value": "significant activation"},
      {"measurement": "% splicing mRNA XBP-I Average", "setting": "[1]; Tm 0.3 ug/ml + compound 2 μM", "value": 11, "unit": "%"},
      {"measurement": "% splicing mRNA XBP-I Average", "setting": "[1]; compound 2 μM", "value": 23, "unit": "%"},
      {"measurement": "% splicing mRNA XBP-I Average", "setting": "[1]; compound 10 μM", "value": 39, "unit": "%"},
      {"measurement": "in vivo activation of Ire1", "setting": "[1]", "value": "significant in vivo activation"},
      {"measurement": "RNA cleavage (yIre1 activation)", "setting": "yIre1", "value": 0.03994}
    ]},
    {"compound": "N#CCc1ccc(Nc2nc(Nc3cc(C4CCCC4)n[nH]3)c3ccccc3n2)cc1", "note": "[APY78]", "values": [
      {"measurement": "% splicing mRNA XBP-I Average", "setting": "[1]; Tm 0.3 ug/ml + compound 2 μM", "value": 11, "unit": "%"},
      {"measurement": "% splicing mRNA XBP-I Average", "setting": "[1]; compound 2 μM", "value": 11, "unit": "%"},
      {"measurement": "% splicing mRNA XBP-I Average", "setting": "[1]; compound 10 μM", "value": 27, "unit": "%"},
      {"measurement": "RNA cleavage (yIre1 activation)", "setting": "yIre1", "value": 0.002028}
    ]},
    {"compound": "N#CCc1ccc(Nc2nc(Nc3cc(C4CCCCC4)n[nH]3)c3ccccc3n2)cc1", "note": "[APY79]", "values": [
      {"measurement": "RNA cleavage (yIre1 activation)", "setting": "yIre1", "value": 0.000626}
    ]},
    {"compound": "Cc1cc(Nc2cc(C3CCCC3)n[nH]2)nc(Nc2ccc(CC#N)cc2)n1", "note": "[APY80]", "values": [
      {"measurement": "inhibition of Ire1", "setting": "Ire1", "value": "significant inhibition"},
      {"measurement": "% splicing mRNA XBP-I Average", "setting": "[1]; Tm 0.3 ug/ml + compound 2 μM", "value": 9, "unit": "%"},
      {"measurement": "% splicing mRNA XBP-I Average", "setting": "[1]; compound 2 μM", "value": 12, "unit": "%"},
      {"measurement": "% splicing mRNA XBP-I Average", "setting": "[1]; compound 10 μM", "value": 28, "unit": "%"},
      {"measurement": "RNA cleavage (yIre1 activation)", "setting": "yIre1", "value": 0.001022}
    ]},
    {"compound": "N#CCc1ccc(Nc2nc(Nc3cc(C4CCC4)n[nH]3)c3ccccc3n2)cc1", "note": "[APY82]", "values": [
      {"measurement": "% splicing mRNA XBP-I Average", "setting": "[1]; Tm 0.3 ug/ml + compound 2 μM", "value": 27, "unit": "%"},
      {"measurement": "% splicing mRNA XBP-I Average", "setting": "[1]; compound 2 μM", "value": 29, "unit": "%"},
      {"measurement": "% splicing mRNA XBP-I Average", "setting": "[1]; compound 10 μM", "value": 27, "unit": "%"},
      {"measurement": "in vivo activation of Ire1", "setting": "[1]", "value": "significant in vivo activation"},
      {"measurement": "RNA cleavage (yIre1 activation)", "setting": "yIre1", "value": 0.002172}
    ]},
    {"compound": "Cc1cc(Nc2cc(C3CCC3)n[nH]2)nc(Nc2ccc(CC#N)cc2)n1", "note": "[APY83]", "values": [
      {"measurement": "activation of Ire1", "setting": "Ire1", "value": "significant activation"},
      {"measurement": "% splicing mRNA XBP-I Average", "setting": "[1]; Tm 0.3 ug/ml + compound 2 μM", "value": 29, "unit": "%"},
      {"measurement": "% splicing mRNA XBP-I Average", "setting": "[1]; compound 2 μM", "value": 21, "unit": "%"},
      {"measurement": "% splicing mRNA XBP-I Average", "setting": "[1]; compound 10 μM", "value": 55, "unit": "%"},
      {"measurement": "in vivo activation of Ire1", "setting": "[1]", "value": "significant in vivo activation"},
      {"measurement": "RNA cleavage (yIre1 activation)", "setting": "yIre1", "value": 0.02693}
    ]},
    {"compound": "N#CCc1ccc(Nc2nccc(Nc3cc(-c4cccs4)n[nH]3)n2)cc1", "note": "[APY84]", "values": [
      {"measurement": "inhibition of Ire1", "setting": "Ire1", "value": "significant inhibition"},
      {"measurement": "% splicing mRNA XBP-I Average", "setting": "[1]; Tm 0.3 ug/ml + compound 2 μM", "value": 12, "unit": "%"},
      {"measurement": "% splicing mRNA XBP-I Average", "setting": "[1]; compound 2 μM", "value": 21, "unit": "%"},
      {"measurement": "% splicing mRNA XBP-I Average", "setting": "[1]; compound 10 μM", "value": 60, "unit": "%"},
      {"measurement": "in vivo activation of Ire1", "setting": "[1]", "value": "significant in vivo activation"},
      {"measurement": "RNA cleavage (yIre1 activation)", "setting": "yIre1", "value": 0.004672}
    ]},
    {"compound": "tunicamycin [Tm, reference compound]", "values": [
      {"measurement": "% splicing mRNA XBP-I Average", "setting": "[1]; Tm alone", "value": 78, "unit": "%"},
      {"measurement": "% fold induction to Control", "setting": "[2]; Tm alone", "value": 59, "unit": "%"},
      {"measurement": "Mean fluorescence", "setting": "[2]; Tm alone", "value": 3869}
    ]}
  ]
}
